In US9522930B2, “Chartreusin analogues” (Leibniz-Institut Für Naturstoff-Forschung Und …, priority 2012, dated 2016):
In brackets after ≈: the same amount, converted by molar mass. Read-outs that look alike come from different tables or passages of the source.

Legend:
[1] = test system: Hs27 foreskin fibroblast cells (ATCC, CRL-1634); test: Growth inhibition of Hs27 in the presence or absence of light; format: cell-based, human; conditions: for GI50: Homo sapiens, 72 hours
Excerpt: In order to verify the extraordinary in vitro photo induced activity a human foreskin fibroblast cell line (Hs27) has been chosen to evaluate the antiproliferative activity against human cells. During this assay a control group without light has been tested under standard conditions. One group was irradiated with a very homogenous LED cluster under the same conditions. […] This indicates the high potential of this new chartreusin-like structure motive as a drug for epithel cell carcinomas. Not only superficial areas like the skin in case of melanoma can be irradiated also endoscopic accessible areas like the bladder, colon, esophageal or laryngeal cancers are conceivable for a treatment.
The Hs27 foreskin fibroblast cells (ATCC, CRL-1634) were grown in RPMI 1640 (CAMBREX 12-167F) supplemented with 500 μl/l gentamicin sulfate (Cambrex 17-518Z), 10% heat inactivated fetal bovine serum (PAA A15-104), at 37° C. in plastic flasks (NUNC) in a humidified atmosphere containing 5% CO2.
The adherent cells of Hs27 were harvested at the logarithmic growth phase after soft trypsinization using 0.25% trypsin in PBS containing 0.02% EDTA (Biochrom KG L2163).
Hs27 cells were seeded with 1×10^4 cells per 0.1 mL per well of the 96-well microplates (NUNC 167008). Then, the plates were prepared with dilutions of the compounds.
The influence of the different dilutions of compounds in the absence or presence of light (distance to the cells: 4 cm) were assayed for 72 hours at 37° C. in a humidified atmosphere containing 5% CO2. After incubation time, the effect of compounds in the absence or presence of light were analyzed in compare to negative control.
For this, the adherent Hs27 cells were fixed by glutaraldehyde (MERCK 1.04239.0250) and stained with a 0.05% solution of methylene blue (SERVA 29198) for 15 min. After gentle washing, the stain was eluted by 0.2 mL of 0.33 N HCl in the wells. The optical densities were measured at 660 nm in a microplate reader (Tecan “Sunrise”, Austria). Under the experimental conditions, the signals from the methylene blue are proportional to the number of viable cells.

[2] = Cytotoxicity against HeLa; conditions: human, HeLa cells (human cervix carcinoma, DSM ACC 57)
Protocol: (§2) Compounds were assayed against human umbilical vein endothelial cells HUVEC (ATCC CRL-1730) and human chronic myeloid leukemia cells K-562 (DSM ACC 10) for their antiproliferative effects (GI50) and against human cervix carcinoma cells HeLa (DSM ACC 57) for their cytotoxic effects (CC50) as previously described (Scherlach, K., Partida-Martinez, L. P., Dahse, H. M. & Hertweck, C. Antimitotic rhizoxin derivatives from a cultured bacterial endosymbiont of the rice pathogenic fungus Rhizopus microsporus. Journal of the American Chemical Society 128, 11529-11536 (2006)).

[3] = test system: human cervix carcinoma cells HeLa (DSM ACC 57); test: Cytotoxicity against HeLa; conditions: HeLa, standard conditions
Protocol: as §2

[4] = test system: human MEL-HO (ACC 62) melanoma cells; test: Growth inhibition of MEL-HO in the presence or absence of light; format: cell-based
Protocol: (§1) The human HT-29 colon adenocarcinoma cells (ACC 299) and the human MEL-HO (ACC 62) melanoma cells were grown as previously described (Ueberschaar, N.; Dahse, H.-M.; Bretschneider, T.; Hertweck, C. Angew. Chem. Int. Ed. 2013, 52, 6185-6189).

[5] = test system: methicillin-resistant Staphylococcus aureus (MRSA); test: Antibiotic activity against MRSA; format: cell-based
[6] = test system: defined DNA fragments (1.5 kb); test: Laser-induced DNA-adduct assay, gel electrophoresis with a specified DNA fragment; conditions: 1% agarose gel; for electrophoretic band shift of DNA fragment, irradiated: blue laser 405 nm, 20 mW, 30 sec
Protocol: However, the situation changed substantially under photoinducing conditions. A GaN laser has been used for an induced DNA-adduct assay because a laser warrants high spectral purity combined with a high power density. Furthermore, the emission wavelength (405 nm) fits to the absorption maximum of chartreusin, which is a prerequisite to efficiently activating the molecule.
For the assay defined DNA fragments (1.5 kb) were treated with either chartreusin or 1-vinylchartreusin, and the effect of blue laser irradiation was compared to negative controls incubated in the dark or with daylight.
DNA-Adduct formation was carried out using a pure specified DNA fragment with the following sequence:
8 μL of water, 2 μL of DNA (25.7 ng/μL) were either directly treated with 2 μL loading buffer or were treated additionally with 0.1 μL (1 mg/mL in DMSO) substrate. The solution was irradiated with a laser (405 nm, 20 mW) for 30 sec. and then treated with loading buffer. The DNA was loaded on 1% agarose gel with ethidium bromide operating at 120 V (FIG. 2).

[7] = test system: vancomycin-resistant Enterococcus (VRE); test: VRE assay (MIC); format: cell-based; conditions: read-out: MIC against VRE
[8] = test system: human HT-29 colon adenocarcinoma cells (ACC 299); test: Growth inhibition of HT-29 in the presence or absence of light; format: cell-based
Protocol: as §1

[9] = test system: Mycobacterium vaccae 10670; test: Antimicrobial activity (MIC), test strain Mycobacterium vaccae 10670; format: cell-based; conditions: Mycolicibacterium vaccae; Test strain: Mycobacterium vaccae 10670; read-out: Antimicrobial MIC value, Mycobacterium vaccae
Excerpt: Antimicrobial (MIC value [μM]), cytotoxic (CC50 [μM] for HeLa) and antiproliferative (GI50 [μM] for HUVEC, K-562, HT-29 and MEL-HO) activities of chartreusin and its derivatives. Test strain: Mycobacterium vaccae 10670.

[10] = test system: human umbilical vein endothelial cells HUVEC (ATCC CRL-1730); test: Growth inhibition (antiproliferative effect) of HUVEC; format: cell-based; conditions: for GI50: Homo sapiens, read-out: antiproliferative GI50, HUVEC
Protocol: as §2

[11] = test system: human chronic myeloid leukemia cells K-562 (DSM ACC 10); test: Growth inhibition (antiproliferative effect) of K-562; format: cell-based; conditions: for GI50: Homo sapiens, K562, read-out: antiproliferative GI50, K-562
Protocol: as §2

[12] = in vitro; conditions: human
Protocol: as §2

[13] = Hs27, with light vs without light
[14] = 8 h, read-out: antiproliferative GI50, Mel-HO, 420 nm, 3 × 8 h
[15] = read-out: antiproliferative GI50, Mel-HO, w/o light
[16] = Homo sapiens, HT-29, 8 h, HT-29, 420 nm, 3 × 8 h, read-out: antiproliferative GI50, HT-29, 420 nm, 3 × 8 h
[17] = Homo sapiens, HT-29, HT-29, w/o light, read-out: antiproliferative GI50, HT-29, w/o light
[18] = Homo sapiens, HT-29, HT-29, with light (blue LED), read-out: GI50 with light, HT-29
[19] = Homo sapiens, HT-29, HT-29, without light (absence of light), read-out: GI50 without light, HT-29

Row | Structure (SMILES) | GI50 [4, 14] | GI50 [4, 15] | electrophoretic band shift of DNA fragment, irradiated [6] | MIC [7] | GI50 [8, 16] | GI50 [8, 17] | GI50 [8, 18] | GI50 [8, 19] | MIC [9] | GI50 [10] | GI50 [11] | further results
1 | C=Cc1ccc2oc(=O)c3c(O)c4cccc(O[C@@H]5OC(C)[C@H](O)[C@H](O)C5O[C@H]5OC(C)[C@H](O)C(OC)[C@H]5O)c4c4oc(=O)c1c2c34 (stereo partly shown) [Vinylchartreusin, 1-Vinylchartreusin] | 0.08 µM | 0.11 µM | clear band shift to a higher molecular mass | 9.59 to 9.76 µM (≈ 6.26 to 6.37 µg/mL) | 0.61 µM | 7.05 µM | 0.6 µM | 7 to 9.4 µM | 4.8 µM (≈ 3.13 µg/mL) | 32.8 µM | 3.06 µM | GI50 ([1]; light or radiation study, Hs27, irradiated with LED cluster, read-out: GI50 value with light, Hs27): 0.5 µg/mL (≈ 0.766 µM); GI50 ([1]; Hs27, without light, read-out: GI50 value without light, Hs27): 6.8 µg/mL (≈ 10.4 µM); GI50 with light lower than without light, Hs27 [1, 13]: more than 10 fold; CC50 [2]: 24.7 µM; activity relative to chartreusin and homochartreusin, HeLa [3]: only slightly lower than chartreusin and homochartreusin; antibiotic activity against MRSA relative to chartreusin and ciprofloxacin [5]: as active as the natural product and are even more potent than the reference antibiotic ciprofloxacin; electrophoretic band shift of DNA fragment, not irradiated ([6]; not irradiated (dark or daylight)): no shift; GI50 ([8]; HT-29, without light (absence of light), read-out: GI50 without light, HT-29): 7.1 µM; less active than chartreusin, HUVEC ([10]; standard conditions (no photoinduction)): about 4 fold; activity relative to chartreusin and homochartreusin, K562 ([11]; K562, standard conditions): only slightly lower than chartreusin and homochartreusin
2 | CO[C@H]1[C@@H](O)[C@@H](C)O[C@H](O[C@H]2[C@H](Oc3cccc4c(O)c5c(=O)oc6ccc(C)c7c(=O)oc(c34)c5c67)O[C@H](C)[C@H](O)[C@@H]2O)[C@@H]1O [Chartreusin] | 2.34 µM | 1.56 µM | electrophoretic properties of the DNA fragment could be fully reserved | 9.59 to 9.76 µM (≈ 6.14 to 6.25 µg/mL) | 7.65 µM | 7.96 µM | 7.65 µM | 7 to 9.4 µM | 1.2 µM (≈ 0.769 µg/mL) | 6.24 µM | 1.56 µM | effect of light on antiproliferative activity, Hs27 [1, 13]: not affected by treatment with light; CC50 [12]: 12.6 µM
